Reference: patent US7632818B2, “Method for treating conditions associated with the Metabolic Syndrome (Syndrome X)” (priority 2003, dated 2009)
Residues, ends and D or L forms follow the SMILES beside them.

How the values were obtained:
[1] = Forward looking example: Metabolic Syndrome patient with chronic environmental antigen stimulation; format: in vivo, human; conditions: sublingual once every two weeks, with diet, exercise, ACE Inhibitor, Fluconazole; over a year
Source text: The further application of the instant invention is illustrated by the following forward looking examples.
• A young person presents to their physician, on annual physical examination, with a weight gain of 50 pounds, is found to have high blood pressure, and reports vaginal pruritis. Over the past few years, they have lived in an area of major traffic congestion (near an oil refinery). The physician does a physical examination and discovers unusual black pigmented areas in their neck creases (acanthosis nigricans) and orders laboratory tests, including fasting and 2-hour blood glucose, serum triglycerides, serum insulin, a cholesterol profile, C-Reactive Protein, serum fibrinogen, and a vaginal smear for candidiasis. • They are found to have impaired glucose tolerance, elevated serum triglycerides, low HDL and high […] and high C-Reactive Protein and fibrinogen levels. Their vaginal smear is positive for candida albicans. • The physician knows that they are seeing a case of the Metabolic Syndrome which progresses to Diabetes Mellitus and Coronary Heart Disease. They prescribe a weight reduction diabetic diet, physical exercise, an ACE Inhibitor, and Fluconazole. […] They continue their diet and physical exercise and loses weight. They require less high blood pressure medication. The physician continues to monitor their cell-mediated immune function, blood glucose levels, lipid profile, and measures of inflammation, and adjusts their medications appropriately. • The patient continues to lose weight to reach their target weight, blood pressure is controlled, blood glucose is normalized, and their risk of diabetes mellitus and coronary heart disease is reduced.

[2] = FEBS LET. 383:18 (1996); cited from earlier work

**Q.** Which results are given for `N[C@@H](Cc1ccc(O)cc1)C(=O)NCC(=O)O` [YG, L-tyrosylglycine]?
**A.** Blood glucose [1]: changes toward normal; C-Reactive Protein [1]: reduced; Cholesterol level [1]: reduced; Immunological activity in vitro [2]: immunologically active

**Q.** For `N[C@@H](Cc1ccc(O)cc1)C(=O)NCC(=O)NCC(=O)O` [YGG, L-tyrosylglycylglycine] (H-Tyr-Gly-Gly-OH), which “Immunological activity in vitro” value [2] is on record?
**A.** immunologically active
